TGI and GI50 data for 15 compounds are collected here from PubChem BioAssay (NCI).

What all share (experiment): inhibition of tumour cell growth, NCI panel, 48 h
Test [1] concerns KM12 colon.
Test [2] relates to SF-539 CNS.
Test [3] has as its system NCI-H226 lung.
Test [4] concerns UACC-257 melanoma.
Test [5] has as its system A498 renal.
Test [6] deals with SK-MEL-2 melanoma.
Test [7] deals with EKVX NSCLC.
Test [8] deals with CAKI-1 renal.
Test [9] deals with DU-145 prostate.
Test [10] relates to HS 578T breast.

Molecules are shown by their SMILES.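 Exposure lasted 48 hours, with cells grown in 96-well plates and compounds tested at five concentrations. At the GI50, growth is halved. The concentration for full growth arrest is given as TGI.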

For `O=C1OC2CCCC[C@@H]2C2C[C@]34CCCCC3[C@@H](C(=O)O4)C12` (stereo partly specified), the TGI in [1], in test [2], in [3], in test [4], in test [5] and in test [6] was more than 100 µM in each case. Moreover, the TGI in test [7] was more than 100 µM.

On to `C/C(CC(=O)NCCc1ccccc1)=N\NC(=O)C[n+]1ccccc1`, for which the TGI in [1], in test [2], in [3], in test [4], in test [5] and in test [6] was more than 100 µM in each case. In addition, the TGI in [7] was more than 100 µM.

As for `CCN(CC)c1ccc(N=Nc2ccc(-c3nc4ccc[n+](C)c4s3)cc2)cc1`, the TGI is 10.9 µM in test [1]; 23 µM in test [2]; 26.1 µM in test [3]; 40.3 µM in test [8]; 24.1 µM in test [4]; 26.6 µM in test [5]. Moreover, the TGI in [6] amounted to 25.5 µM; in test [7], 58.8 µM.

On to `COc1ccc(OC)c2c(C(=O)O)c(Cc3ccccc3)ccc12`, for which the TGI in test [1], in test [3], in test [8], in test [4], in test [5] and in test [6] was more than 100 µM in each case. This compound yielded a TGI in test [7] of more than 100 µM.

Regarding `CCOC(=O)NC(=O)c1cn(CCCOC(=O)CCCCCCCCCCC(=O)OCCCn2cc(C(=O)NC(=O)OCC)c(=O)[nH]c2=O)c(=O)[nH]c1=O`, the TGI in test [1], in [2], in test [3], in [4], in [6] and in test [7] was more than 100 µM in each case.

On to `C[C@]12CC[C@@H]3c4cc(OCC(F)(F)F)c(O)cc4/C(=N/O)C[C@H]3[C@@H]1CC[C@@H]2O`, for which the GI50 in test [9] is 0.0673 µM. The TGI was more than 54 µM in test [9]; 11.2 µM in [1]; 0.0725 µM in [2]; more than 40.8 µM in test [3]; more than 66.6 µM in [8]; 45.5 µM in test [4]. The TGI in test [5] was determined as 21.5 µM; in test [6], 0.852 µM; in [7] it was 28.9 µM.

For the compound `S=C1OC2CCCC[C@H]2O1` (stereo partly specified), the TGI in test [1], in test [2], in [3], in test [8], in [4] and in test [6] was more than 100 µM each time. Besides, the TGI in [7] was more than 100 µM.

For `CC1=CC(C/C(C)=C/COc2ccc3ccc(=O)oc3c2)OC1=O` (stereo unspecified), the TGI in [9], in test [10], in test [1], in test [2], in [3] and in test [8] was more than 100 µM each time. The TGI in test [4] and in [7] was more than 100 µM each time.

Turning to `Cn1c2ccccc2c(=O)c2ccc(Cl)cc21`, the TGI in [1], in [2], in test [6] and in test [7] was more than 10 µM each time.

For the compound `Cc1ncc(CCCN(C)C)cc1Nc1ncc2c(n1)-c1ccc(C(F)(F)F)cc1NC(=S)C2`, the GI50 is 0.0276 µM in test [10]; less than 0.0134 µM in test [1]; 0.0312 µM in test [2]; 0.659 µM in test [3]; 0.0779 µM in [8]; 0.0219 µM in test [5]. Moreover, the GI50 in test [6] is 1.08 µM. The TGI in [10] is 1.14 µM; in test [1] it was 10.9 µM; in [2], 0.11 µM; in test [3], 15.7 µM; in [8] it was 5.54 µM; in test [5], 0.0769 µM. Also, the TGI in [6] is 6.99 µM.

As to `CCCCCCCCCCCC(=O)OCC1OC(OC)C(NC(=O)N(CCCl)N=O)C(O)C1O` (stereo unspecified), the TGI was 37.1 µM in [1]; 14.8 µM in test [2]; 59.3 µM in test [3]; more than 100 µM in test [8]; 27.5 µM in test [4]; 35.7 µM in test [5]. The TGI in [6] was 54.5 µM.

For `O=C1CC2CCCC23CC2(CCN13)OCCO2` (stereo unspecified), the TGI in [1], in [2], in [3], in [8], in test [4] and in test [5] was more than 100 µM each time. Besides, the TGI in test [6] and in test [7] was more than 100 µM throughout.

Take `COc1ccc(CCN2COc3c([C@@H](C)CCC=C(C)C)ccc(C)c3C2)cc1OC`: the GI50 is 3.94 µM in test [10]; 2.86 µM in test [1]; 4.48 µM in test [2]; 8.64 µM in [3]; 2.73 µM in test [8]; 2.93 µM in test [4]. For the same compound, the results for the GI50 in test [5], in [6] and in test [7] were 1.96 µM, 1.88 µM and 5.14 µM, respectively. Moreover, the TGI worked out at 17.3 µM in test [10]; 9.64 µM in test [1]; 15.9 µM in test [2]; 21.6 µM in test [3]; 12.1 µM in test [8]; 10.9 µM in [4]. For the same compound, the results for the TGI in [5], in [6] and in test [7] were 11.9 µM, 3.82 µM and 25.4 µM, respectively.

Consider `N#CC1CC2(C1)OCCS2` (stereo unspecified), for which the TGI in test [1], in [2], in test [3], in test [8], in test [4] and in test [5] was more than 100 µM each time. For the same compound, the TGI in test [6] and in test [7] was more than 100 µM in each case.

Consider `CC(C)(C)c1cc(C(O)(C(F)(F)F)C(F)(F)F)c2c(c1)C(C(F)(F)F)(C(F)(F)F)OC(C(C)(C)C)N2` (stereo unspecified), for which the TGI in [1] is 14 µM; in test [2], 6.68 µM; in test [3], 10.2 µM; in test [8] it was 8.45 µM; in [4], 9.48 µM; in test [6] it was 10.3 µM. This compound also yielded a TGI in test [7] of 17.1 µM.
